Reference: patent US8124637B2, “Anthra [1, 2-d]imidazole-6,11-dione derivatives, preparation method and application thereof” (National Defense Medical Center, priority 2010, dated 2012)

Tests used:
[1] = NCI 60-cell drug screen, one dose; format: cell-based, human; conditions: Renal Cancer A489, 1.00E−5 Molar
Procedure: (§1) In brief, cellular protein levels were determined after 48 hours of drug exposure by sulforhodamine B colorimetry.
(§2) The screening system in United State National Cancer Institute (NCI) consists of 60 kinds of different human cancer cells, which can be used to assay the growth-inhibiting ability or cell toxicity of a compound against various cancer and tumor at a certain concentration. The NCI had selected 6 compounds synthesized above, and performed cell toxicity assay against 60 kinds of cancer cell strains (Table 2) (DTP Human Tumor Cell Line Screen), in which each compound was assayed at a certain concentration to observe its inhibition ability or cell toxicity against various kinds of cancer and tumor.

CCRF-CEM = assay: NCI 60-cell drug screen, one dose; format: cell-based, human; conditions: Leukemia CCRF-CEM, 1.00E−5 Molar
Procedure: as §1, §2

DU145 = assay: NCI 60-cell drug screen, one dose; format: cell-based, human; conditions: Prostate Cancer DU145, 1.00E−5 Molar
Procedure: as §1, §2

HCC-2998 = assay: NCI 60-cell drug screen, one dose; format: cell-based, human; conditions: Colon Cancer HCC-2998, 1.00E−5 Molar
Procedure: as §1, §2

HCT-116 = assay: NCI 60-cell drug screen, one dose; format: cell-based, human; conditions: Colon Cancer HCT-116, 1.00E−5 Molar
Procedure: as §1, §2

HCT-15 = assay: NCI 60-cell drug screen, one dose; format: cell-based, human; conditions: Colon Cancer HCT-15, 1.00E−5 Molar
Procedure: as §1, §2

HL-60(TB) = assay: NCI 60-cell drug screen, one dose; format: cell-based, human; conditions: Leukemia HL-60(TB), 1.00E−5 Molar
Procedure: as §1, §2

IGROV1 = assay: NCI 60-cell drug screen, one dose; format: cell-based, human; conditions: Ovarian Cancer IGROV1, 1.00E−5 Molar
Procedure: as §1, §2

MALME-3M = assay: NCI 60-cell drug screen, one dose; format: cell-based, human; conditions: Melanoma MALME-3M, 1.00E−5 Molar
Procedure: as §1, §2

MDA-MB-231/ATCC = assay: NCI 60-cell drug screen, one dose; format: cell-based, human; conditions: Breast Cancer MDA-MB-231/ATCC, 1.00E−5 Molar
Procedure: as §1, §2

MDA-MB-468 = assay: NCI 60-cell drug screen, one dose; format: cell-based, human; conditions: Breast Cancer MDA-MB-468, 1.00E−5 Molar
Procedure: as §1, §2

MOLT-4 = assay: NCI 60-cell drug screen, one dose; format: cell-based, human; conditions: Leukemia MOLT-4, 1.00E−5 Molar
Procedure: as §1, §2

NCI-H226 = assay: NCI 60-cell drug screen, one dose; format: cell-based, human; conditions: Non-Small Cell Lung Cancer NCI-H226, 1.00E−5 Molar
Procedure: as §1, §2

NCI/ADR-RES = assay: NCI 60-cell drug screen, one dose; format: cell-based, human; conditions: Ovarian Cancer NCI/ADR-RES, 1.00E−5 Molar
Procedure: as §1, §2

OVCAR-3 = assay: NCI 60-cell drug screen, one dose; format: cell-based, human; conditions: Ovarian Cancer OVCAR-3, 1.00E−5 Molar
Procedure: as §1, §2

OVCAR-4 = assay: NCI 60-cell drug screen, one dose; format: cell-based, human; conditions: Ovarian Cancer OVCAR-4, 1.00E−5 Molar
Procedure: as §1, §2

PC-3 = assay: NCI 60-cell drug screen, one dose; format: cell-based, human; conditions: Prostate Cancer PC-3, 1.00E−5 Molar
Procedure: as §1, §2

SF-268 = assay: NCI 60-cell drug screen, one dose; format: cell-based, human; conditions: CNS Cancer SF-268, 1.00E−5 Molar
Procedure: as §1, §2

SK-MEL-2 = assay: NCI 60-cell drug screen, one dose; format: cell-based, human; conditions: Melanoma SK-MEL-2, 1.00E−5 Molar
Procedure: as §1, §2

SK-OV-3 = assay: NCI 60-cell drug screen, one dose; format: cell-based, human; conditions: Ovarian Cancer SK-OV-3, 1.00E−5 Molar
Procedure: as §1, §2

SNB-75 = assay: NCI 60-cell drug screen, one dose; format: cell-based, human; conditions: CNS Cancer SNB-75, 1.00E−5 Molar
Procedure: as §1, §2

SR = assay: NCI 60-cell drug screen, one dose; format: cell-based, human; conditions: Leukemia SR, 1.00E−5 Molar
Procedure: as §1, §2

TK-10 = assay: NCI 60-cell drug screen, one dose; format: cell-based, human; conditions: Renal Cancer TK-10, 1.00E−5 Molar
Procedure: as §1, §2

U251 = assay: NCI 60-cell drug screen, one dose; format: cell-based, human; conditions: CNS Cancer U251, 1.00E−5 Molar
Procedure: as §1, §2

UACC-62 = assay: NCI 60-cell drug screen, one dose; format: cell-based, human; conditions: Melanoma UACC-62, 1.00E−5 Molar
Procedure: as §1, §2

UO-31 = assay: NCI 60-cell drug screen, one dose; format: cell-based, human; conditions: Renal Cancer UO-31, 1.00E−5 Molar
Procedure: as §1, §2

[2] = MTT assay (relative cell survival), H1299; conditions: human, H1299 non-small cell lung cancer cells (PhTERT-SEAP), Relative MTT viability (%)
Procedure: (§3) Further, cells were subjected to MTT assay to compare the relative toxicity or effect of each compound on cell proliferation and activity.
(§4) The above-described cells are cultured in a 96-well plate, to which was added with 25 μl MTT solution, and cultured in a 37° C. carbon dioxide incubator for 4 hours. Then, 100 μl Lysis buffer is added and incubated in a 37° C. carbon dioxide incubator overnight. An ELISA reader (Bio-Rad Model 450) is used to read optical density (O.D.) at 550 nm.
(§5) After being subjected to different compound treatments for 72 hours, cells were treated with a fixed amount of MTT solution for 28 hours. Then, DMSO was used to dissolve back formazan, an O. D. value was detected at wavelength in the range of 550/670 nm, and calculated accordingly the cell survival rate (as shown in Table 1).

A549/ATCC = assay: NCI 60-cell drug screen, one dose; format: cell-based, human; conditions: Non-Small Cell Lung Cancer A549/ATCC, 1.00E−5 Molar
Procedure: as §1, §2

OVCAR-8 = assay: NCI 60-cell drug screen, one dose; format: cell-based, human; conditions: Ovarian Cancer OVCAR-8, 1.00E−5 Molar
Procedure: as §1, §2

SF-295 = assay: NCI 60-cell drug screen, one dose; format: cell-based, human; conditions: CNS Cancer SF-295, 1.00E−5 Molar
Procedure: as §1, §2

in vitro = conditions: human, Relative MTT viability (%)
Procedure: as §3, §4, §5

SMILES: O=C1c2ccccc2C(=O)c2c1ccc1nc(CN3CCCCC3)[nH]c21 [CL16, 2-((piperidin-1-yl)methyl)-1H-anthra[1,2-d]imidazole-6,11-dione]
- Growth Percent [1]: 61.84%
- Growth Percent (CCRF-CEM): 102.47%
- Growth Percent (DU145): 74.90%
- Growth Percent (HCC-2998): 82.81%
- Growth Percent (HCT-116): 62.12%
- Growth Percent (HCT-15): 54.20%
- Growth Percent (HL-60(TB)): 56.89%
- Growth Percent (IGROV1): 54.22%
- Growth Percent (MALME-3M): 119.68%
- Growth Percent (MDA-MB-231/ATCC): 77.93%
- Growth Percent (MDA-MB-468): 58.32%
- Growth Percent (MOLT-4): 22.77%
- Growth Percent (NCI-H226): 78.85%
- Growth Percent (NCI/ADR-RES): 73.52%
- Growth Percent (OVCAR-3): 66.26%
- Growth Percent (OVCAR-4): 65.27%
- Growth Percent (PC-3): 81.94%
- Growth Percent (SF-268): 58.46%
- Growth Percent (SK-MEL-2): 113.29%
- Growth Percent (SK-OV-3): 92.54%
- Growth Percent (SNB-75): 86.42%
- Growth Percent (SR): 57.64%
- Growth Percent (TK-10): 115.68%
- Growth Percent (U251): 72.67%
- Growth Percent (UACC-62): 74.61%
- Growth Percent (UO-31): 42.93%
- viability at 72 h, 1 µM [2]: 111 ± 8.66%
- viability at 72 h, 100 µM ([2]; 100 μM): 19.6%

SMILES: CN(CCc1ccccn1)Cc1nc2ccc3c(c2[nH]1)C(=O)c1ccccc1C3=O [CL07, 2-((N-methyl-2-(pyridin-2-yl)ethanamino)methyl)-1H-anthra[1,2-d]imidazole-6,11-dione]
- Growth Percent [1]: 69.60%
- Growth Percent (A549/ATCC): 106.30%
- Growth Percent (CCRF-CEM): 39.91%
- Growth Percent (DU145): 83.70%
- Growth Percent (HCC-2998): 95.82%
- Growth Percent (HCT-116): 83.56%
- Growth Percent (HCT-15): 80.78%
- Growth Percent (HL-60(TB)): 120.08%
- Growth Percent (IGROV1): 54.26%
- Growth Percent (MALME-3M): 107.00%
- Growth Percent (MDA-MB-231/ATCC): 88.98%
- Growth Percent (MDA-MB-468): 77.09%
- Growth Percent (MOLT-4): 47.54%
- Growth Percent (NCI-H226): 81.36%
- Growth Percent (NCI/ADR-RES): 86.11%
- Growth Percent (OVCAR-3): 83.57%
- Growth Percent (OVCAR-4): 80.99%
- Growth Percent (OVCAR-8): 80.59%
- Growth Percent (PC-3): 99.83%
- Growth Percent (SF-268): 85.87%
- Growth Percent (SF-295): 105.86%
- Growth Percent (SK-MEL-2): 95.03%
- Growth Percent (SK-OV-3): 106.7%
- Growth Percent (SNB-75): 81.62%
- Growth Percent (SR): 70.10%
- Growth Percent (TK-10): 130.74%
- Growth Percent (U251): 81.83%
- Growth Percent (UACC-62): 89.67%
- Growth Percent (UO-31): 49.49%
- viability at 72 h, 1 µM [2]: 104.3 ± 0.96%

SMILES: O=C1c2ccccc2C(=O)c2c1ccc1nc(CN3CCN(c4ccccc4)CC3)[nH]c21 [CL27, 2-((4-phenylpiperazin-1-yl)methyl)-1H-anthra[1,2-d]imidazole-6,11-dione]
- Growth Percent [1]: 75.09%
- Growth Percent (A549/ATCC): 111.76%
- Growth Percent (CCRF-CEM): 74.42%
- Growth Percent (DU145): 90.69%
- Growth Percent (HCT-116): 78.28%
- Growth Percent (HCT-15): 74.39%
- Growth Percent (HL-60(TB)): 107.54%
- Growth Percent (IGROV1): 69.25%
- Growth Percent (MALME-3M): 119.09%
- Growth Percent (MDA-MB-231/ATCC): 90.47%
- Growth Percent (MDA-MB-468): 72.75%
- Growth Percent (MOLT-4): 55.21%
- Growth Percent (NCI-H226): 82.98%
- Growth Percent (NCI/ADR-RES): 80.36%
- Growth Percent (OVCAR-3): 76.56%
- Growth Percent (OVCAR-4): 67.72%
- Growth Percent (OVCAR-8): 80.89%
- Growth Percent (PC-3): 77.91%
- Growth Percent (SF-268): 80.44%
- Growth Percent (SF-295): 105.37%
- Growth Percent (SK-MEL-2): 101.39%
- Growth Percent (SK-OV-3): 98.95%
- Growth Percent (SNB-75): 70.93%
- Growth Percent (SR): 43.11%
- Growth Percent (TK-10): 118.37%
- Growth Percent (U251): 84.83%
- Growth Percent (UACC-62): 93.36%
- Growth Percent (UO-31): 58.33%
- viability at 72 h, 1 µM (in vitro): 90.2 ± 3.86%
- viability at 72 h, 10 µM (in vitro): 54.4%
- viability at 72 h, 100 µM (in vitro): 18.1%

SMILES: CCN(CC)Cc1nc2ccc3c(c2[nH]1)C(=O)c1ccccc1C3=O [CL04, 2-((diethylamino)methyl)-1H-anthra[1,2-d]imidazole-6,11-dione]
- Growth Percent [1]: 49.50%
- Growth Percent (CCRF-CEM): 47.88%
- Growth Percent (DU145): 73.54%
- Growth Percent (HCC-2998): 80.61%
- Growth Percent (HCT-116): 48.22%
- Growth Percent (HCT-15): 65.75%
- Growth Percent (HL-60(TB)): 68.18%
- Growth Percent (IGROV1): 13.61%
- Growth Percent (MALME-3M): 98.45%
- Growth Percent (MDA-MB-231/ATCC): 75.52%
- Growth Percent (MDA-MB-468): 54.46%
- Growth Percent (NCI-H226): 77.20%
- Growth Percent (NCI/ADR-RES): 65.32%
- Growth Percent (OVCAR-3): 63.32%
- Growth Percent (OVCAR-4): 65.69%
- Growth Percent (SF-268): 74.04%
- Growth Percent (SF-295): 89.56%
- Growth Percent (SK-MEL-2): 102.69%
- Growth Percent (SK-OV-3): 86.81%
- Growth Percent (SNB-75): 82.03%
- Growth Percent (SR): 42.38%
- Growth Percent (TK-10): 98.12%
- Growth Percent (U251): 70.77%
- Growth Percent (UACC-62): 68.47%
- Growth Percent (UO-31): 27.21%
- viability at 72 h, 1 µM [2]: 101 ± 6.67%
- viability at 72 h, 10 µM [2]: > 50%

SMILES: CN1CCN(Cc2nc3ccc4c(c3[nH]2)C(=O)c2ccccc2C4=O)CC1 [CL24, 2-((4-methylpiperazin-1-yl)methyl)-1H-anthra[1,2-d]imidazole-6,11-dione]
- Growth Percent [1]: 69.36%
- Growth Percent (CCRF-CEM): 34.45%
- Growth Percent (DU145): 60.08%
- Growth Percent (HCC-2998): 61.90%
- Growth Percent (HCT-116): 27.73%
- Growth Percent (HCT-15): 44.98%
- Growth Percent (HL-60(TB)): 65.29%
- Growth Percent (IGROV1): 12.05%
- Growth Percent (MALME-3M): 89.63%
- Growth Percent (MDA-MB-231/ATCC): 61.66%
- Growth Percent (MDA-MB-468): 71.59%
- Growth Percent (NCI-H226): 64.48%
- Growth Percent (OVCAR-3): 52.79%
- Growth Percent (OVCAR-4): 50.98%
- Growth Percent (SF-268): 51.16%
- Growth Percent (SF-295): 81.61%
- Growth Percent (SK-MEL-2): 107.95%
- Growth Percent (SK-OV-3): 74.33%
- Growth Percent (SNB-75): 69.87%
- Growth Percent (SR): 21.48%
- Growth Percent (TK-10): 73.05%
- Growth Percent (U251): 65.41%
- Growth Percent (UACC-62): 81.12%
- Growth Percent (UO-31): 22.93%
- viability at 72 h, 1 µM [2]: 87.4 ± 5.52%
- viability at 72 h, 10 µM [2]: < 50%
